Common to all, as to format: cell-based
Test [1] can be described thus: MIC, summary over rifampin-susceptible Gram-positive strains. Particulars: read-out: MICs. On the procedure:
(§1) Representative compounds were assayed for antimicrobial activity as follows: Minimum Inhibitory Concentrations (“MICs”) were determined by the microbroth dilution method as per NCCLS guidelines (National Committee for Clinical Laboratory Standards, 2000), except that all growth incubations were conducted at 37° C. Bacterial cultures were tested in the following bacteriological media: S. aureus, S. epidermidis, and E. coli in Cation-Adjusted Mueller-Hinton Broth, S. pneumoniae in THY Broth supplemented with 1 mg/mL catalase under 5% CO2 atmosphere, S. pyogenes in THY Broth, E. faecalis in BHI Broth, H. influenzae in BHI Broth supplemented with 0.75 μL of 1 mg/mL NAD and 150 μL of 1 mg/ml hematin per 5 mL, and M smegmatis in Middlebrook Broth plus ADC Enrichment.

Test [2] relates to H. influenzae ATCC 10211 and E. coli ATCC 25922. As to the kind of experiment: MIC, summary over Gram-negative bacteria. How it is done: as §1
The test system of test [3] is Staphylococcus aureus ATCC29213 rpoB^D417Y. The test is described as follows: microbe, parasite or virus in culture. How it is done:
as §1

Test [4] has as its system Staphylococcus aureus ATCC29213 rpoB^H418Y. As to the kind of experiment: microbe, parasite or virus in culture. On the procedure: as §1
Test [5] deals with Staphylococcus aureus ATCC29213. The test is described as follows: MIC, microbroth dilution. Particulars: rifS, Cation-Adjusted Mueller-Hinton Broth, 37° C., read-out: MIC. The essentials: (§2)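 MICs by microbroth dilution per NCCLS guidelines, all incubations at 37 °C. S. aureus in cation-adjusted Mueller-Hinton broth; H. influenzae in BHI broth with NAD and hematin; M. smegmatis in Middlebrook broth plus ADC enrichment.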

Test [6] relates to Streptococcus pyogenes ATCC19615. The test is described as follows: MIC, microbroth dilution. Particulars: rifS, THY Broth, 37° C. (In general: In broth dilution the organism is exposed to a series of concentrations in liquid medium.)
The subject of test [7] is Escherichia coli ATCC25922. As to the kind of experiment: MIC, microbroth dilution. Particulars: rifS, Cation-Adjusted Mueller-Hinton Broth, 37° C.
The test system of test [8] is Streptococcus pneumoniae ATCC6303. The test is described as follows: MIC, microbroth dilution. Particulars: rifS, THY Broth supplemented with 1 mg/mL catalase under 5% CO2, 37° C.
Test [9] relates to Haemophilus influenzae ATCC10211. The test is described as follows: MIC, microbroth dilution. The essentials:
as §2

Test [10] deals with Enterococcus faecalis ATCC29212. The test is described as follows: MIC, microbroth dilution. Particulars: rifS, BHI Broth, 37° C., read-out: MIC. The essentials: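 Antimicrobial activity against E. faecalis was assessed as the MIC, using the microbroth dilution procedure described by NCCLS (2000) guidelines. BHI Broth served as the culture medium, and all incubations for growth were performed at 37° C rather than under the guideline's default conditions.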

The subject of test [11] is Mycobacterium smegmatis ATCC700084. The test is described as follows: MIC, microbroth dilution. The essentials:
as §2

The subject of test [12] is Staphylococcus epidermidis ATCC12228. As to the kind of experiment: MIC, microbroth dilution. Particulars: rifS, Cation-Adjusted Mueller-Hinton Broth, 37° C. The essentials: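 MICs by microbroth dilution following NCCLS guidelines, with all growth incubations at 37 °C. S. aureus strains grown in cation-adjusted Mueller-Hinton broth; H. influenzae in BHI broth with added NAD and hematin; M. smegmatis in Middlebrook broth plus ADC enrichment.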

[13] abbreviates: Mycolicibacterium smegmatis, ATCC700084, rifS, Middlebrook Broth plus ADC Enrichment, 37° C., read-out: MIC.

MIC data for twelve compounds are collected here from US7250413B2, “C-25 carbamate rifamycin derivatives with activity against drug-resistant microbes” (Cumbre Pharmaceuticals Inc., priority 2004, dated 2007).

SMILES strings stand for the structures. Converted amounts (≈) assume the structure as drawn. Like-named read-outs stand apart in the source and are kept apart here. Bounds are passed on as bounds.

Consider `CO[C@H]1/C=C/O[C@@]2(C)Oc3c(C)c(O)c4c(O)c(c(/C=N/N5CCN(C)CC5)c(O)c4c3C2=O)NC(=O)/C(C)=C\C=C\[C@H](C)[C@H](O)[C@@H](C)[C@@H](O)[C@@H](C)[C@H](OC(C)=O)[C@@H]1C` [rifampin], for which the MIC was 0.03 to 1.3 µg/mL (≈ 0.0365 to 1.58 µM) in [1]; 0.24 to 16 µg/mL (≈ 0.292 to 19.4 µM) in test [2]; more than 64 µg/mL in test [3] (Staphylococcus aureus, ATCC29213); more than 64 µg/mL in test [3] (rifR, Cation-Adjusted Mueller-Hinton Broth, 37° C.); 7.8 µg/mL (≈ 9.48 µM) in [4] (ATCC29213, rifR, Cation-Adjusted Mueller-Hinton Broth, 37° C.); 8 µg/mL (≈ 9.72 µM) in test [4] (ATCC29213, text, rifampin-resistant strain S. aureus ATCC 29213 RpoB^H418Y). For the same compound, the MIC in test [5] turned out to be 0.008 µg/mL (≈ 0.00972 µM); in test [6], 0.013 µg/mL (≈ 0.0158 µM); in test [7] it was 16 µg/mL (≈ 19.4 µM); in [8], 0.061 µg/mL (≈ 0.0741 µM); in test [9], 0.24 µg/mL (≈ 0.292 µM); in [10], 0.98 µg/mL (≈ 1.19 µM). Besides, the figures for the MIC in [11] (setting [13]), in test [11] (mycobacterial strain M smegamatis ATCC 700084) and in [12] were 64 µg/mL, 64 µg/mL (≈ 77.8 µM) and 0.03 µg/mL (≈ 0.0365 µM), respectively.
Consider `CO[C@H]1/C=C/O[C@@]2(C)Oc3c(C)c(O)c4c(c3C2=O)C(=O)C(N2CCOCC2)=C(NC(=O)/C(C)=C\C=C\[C@H](C)[C@H](O)[C@@H](C)[C@@H](O)[C@@H](C)[C@H](OC(=O)NCCc2ccccc2)[C@@H]1C)C4=O` [Example 25, 25-O-Desacetyl-(carbonyl-3-phenylethylamino) 3-morpholino rifamycin S], for which the MIC is 0.002 to 1.95 µg/mL (≈ 0.00226 to 2.2 µM) in test [5], 0.25 to 62 µg/mL (≈ 0.282 to 70 µM) in [10] and 0.063 to 31 µg/mL in test [11] (setting [13]).
In the case of `CO[C@H]1/C=C/O[C@@]2(C)Oc3c(C)c(O)c4c(c3C2=O)C(=O)C(N2CCOCC2)=C(NC(=O)/C(C)=C\C=C\[C@H](C)[C@H](O)[C@@H](C)[C@@H](O)[C@@H](C)[C@H](OC(=O)NCc2cnc3ccccc3c2)[C@@H]1C)C4=O` [Example 41, 25-O-Desacetyl-(carbonyl-N-quinolin-3-yl-methylamino) 3-morpholino rifamycin S], the MIC in [5] lay in the range of 0.002 to 1.95 µg/mL (≈ 0.00217 to 2.11 µM); in [10] it was 0.25 to 62 µg/mL (≈ 0.271 to 67.2 µM); in test [11] (setting [13]), 0.063 to 31 µg/mL.
On the same counts, the results for `COc1c(N2CCN(C(=O)C3CN(C(=O)O[C@H]4[C@H](C)[C@H](O)[C@H](C)[C@@H](O)[C@@H](C)/C=C/C=C(/C)C(=O)NC5=C(N6CCOCC6)C(=O)c6c(c(O)c(C)c7c6C(=O)[C@@](C)(O/C=C/[C@H](OC)[C@H]4C)O7)C5=O)C3)C(C)C2)c(F)cc2c(=O)c(C(=O)O)cn(C3CC3)c12` (stereo partly drawn) [Example 65] are 0.002 to 1.95 µg/mL (≈ 0.00163 to 1.59 µM), 0.25 to 62 µg/mL (≈ 0.204 to 50.7 µM) and 0.063 to 31 µg/mL.
For `CO[C@H]1/C=C/O[C@@]2(C)Oc3c(C)c(O)c4c(c3C2=O)C(=O)C(N2CCOCC2)=C(NC(=O)/C(C)=C\C=C\[C@H](C)[C@H](O)[C@@H](C)[C@@H](O)[C@@H](C)[C@H](OC(=O)N2CCN(CCNc3ccc(C(=NO)Nc5ccccc5)cc3C(F)(F)F)CC2)[C@@H]1C)C4=O` [Example 49, 25-O-Desacetyl-(carbonyl-N-hydroxy-N′-phenyl-4-(2-piperazin-1-yl-ethylamino)-3-trifluoromethyl-benzamidine) 3-morpholino rifamycin S], the MIC in test [5] is 0.002 to 1.95 µg/mL (≈ 0.00171 to 1.66 µM); in test [10], 0.25 to 62 µg/mL (≈ 0.213 to 52.9 µM); in test [11] (setting [13]), 0.063 to 31 µg/mL.
On the same counts, the results for `CO[C@H]1/C=C/O[C@@]2(C)Oc3c(C)c(O)c4c(c3C2=O)C(=O)C(N2CCOCC2)=C(NC(=O)/C(C)=C\C=C\[C@H](C)[C@H](O)[C@@H](C)[C@@H](O)[C@@H](C)[C@H](OC(=O)NCC(C)C)[C@@H]1C)C4=O` [Example 7, 25-O-Desacetyl-(1-carbonyl-isobutylamino) 3-morpholino rifamycin S] are 0.002 to 1.95 µg/mL (≈ 0.00239 to 2.33 µM), 0.25 to 62 µg/mL (≈ 0.298 to 74 µM) and 0.063 to 31 µg/mL.
`COc1ccc(CNC(=O)O[C@H]2[C@H](C)[C@H](O)[C@H](C)[C@@H](O)[C@@H](C)/C=C/C=C(/C)C(=O)NC3=C(N4CCOCC4)C(=O)c4c(c(O)c(C)c5c4C(=O)[C@@](C)(O/C=C/[C@H](OC)[C@H]2C)O5)C3=O)cc1` [Example 26, 25-O-Desacetyl-(carbonyl-4-methoxybenzylamino) 3-morpholino rifamycin S]: the figures for the MIC in test [5], in test [10] and in test [11] (setting [13]) were 0.002 to 1.95 µg/mL (≈ 0.00222 to 2.16 µM), 0.25 to 62 µg/mL (≈ 0.277 to 68.7 µM) and 0.063 to 31 µg/mL, respectively.
Regarding `CO[C@H]1/C=C/O[C@@]2(C)Oc3c(C)c(O)c4c(c3/C2=N/O)C(=O)C(N2CCOCC2)=C(NC(=O)/C(C)=C\C=C\[C@H](C)[C@H](O)[C@@H](C)[C@@H](O)[C@@H](C)[C@H](OC(=O)NC2CCN(c3c(F)cc5c(=O)c(C(=O)O)cn(C6CC6)c5c3Cl)C2)[C@@H]1C)C4=O` (stereo partly drawn) [Example 68], the MIC lay within 0.002 to 1.95 µg/mL (≈ 0.00175 to 1.7 µM) in test [5], 0.25 to 62 µg/mL (≈ 0.218 to 54.1 µM) in [10] and 0.063 to 31 µg/mL in test [11] (setting [13]).
In the same order, the values of `COc1c(N2CCC(NC3CCN(C(=O)O[C@H]4[C@H](C)[C@H](O)[C@H](C)[C@@H](O)[C@@H](C)/C=C/C=C(/C)C(=O)NC5=C(N6CCOCC6)C(=O)c6c(c(O)c(C)c7c6C(=O)[C@@](C)(O/C=C/[C@H](OC)[C@H]4C)O7)C5=O)CC3)C2)c(F)cc2c(=O)c(C(=O)O)cn(C3CC3)c12` (stereo partly drawn) [Example 56] are 0.002 to 1.95 µg/mL (≈ 0.00165 to 1.61 µM), 0.25 to 62 µg/mL (≈ 0.207 to 51.3 µM) and 0.063 to 31 µg/mL.
In the same order, the values of `CO[C@H]1/C=C/O[C@@]2(C)Oc3c(C)c(O)c4c(c3C2=O)C(=O)C(N2CCOCC2)=C(NC(=O)/C(C)=C\C=C\[C@H](C)[C@H](O)[C@@H](C)[C@@H](O)[C@@H](C)[C@H](OC(=O)N2CCN(c3c(F)cc5c(=O)c(C(=O)O)cn(C6CC6)c5c3Cl)CC2)[C@@H]1C)C4=O` [Example 17, 25-O-Desacetyl-(8-chloro-1-cyclopropyl-7-[4-(1-carbonyl)-piperazin-1-yl]-6-fluoro-4-oxo-1,4-dihydro-quinoline-3-carboxylic acid) 3-morpholino rifamycin S] are 0.002 to 1.95 µg/mL (≈ 0.00177 to 1.72 µM), 0.25 to 62 µg/mL (≈ 0.221 to 54.8 µM) and 0.063 to 31 µg/mL.
On the same counts, the results for `CO[C@H]1/C=C/O[C@@]2(C)Oc3c(C)c(O)c4c(c3C2=O)C(=O)C(N2CCOCC2)=C(NC(=O)/C(C)=C\C=C\[C@H](C)[C@H](O)[C@@H](C)[C@@H](O)[C@@H](C)[C@H](OC(=O)NCc2cc(C(C)=O)no2)[C@@H]1C)C4=O` [Example 48] are 0.002 to 1.95 µg/mL (≈ 0.00221 to 2.15 µM), 0.25 to 62 µg/mL (≈ 0.276 to 68.5 µM) and 0.063 to 31 µg/mL.
On to `CO[C@H]1/C=C/O[C@@]2(C)Oc3c(C)c(O)c4c(c3C2=O)C(=O)C(N2CCOCC2)=C(NC(=O)/C(C)=C\C=C\[C@H](C)[C@H](O)[C@@H](C)[C@@H](O)[C@@H](C)[C@H](OC(=O)NCc2ccc(Cl)cc2)[C@@H]1C)C4=O` [Example 22, 25-O-Desacetyl-(carbonyl-4-chlorobenzyl) 3-morpholino rifamycin S], for which the MIC in test [5] is 0.002 to 1.95 µg/mL (≈ 0.00221 to 2.15 µM); in [10], 0.25 to 62 µg/mL (≈ 0.276 to 68.4 µM); in test [11] (setting [13]), 0.063 to 31 µg/mL.
